In patent US6465433B1, “Boronic ester and acid compounds, synthesis and uses” (Millennium Pharmaceuticals, Inc., priority 1994, dated 2002):

What was measured:
[1] = molecular target: SDS-activated 20S proteasome from rabbit muscle (Oryctolagus cuniculus, UniProt G1SU71+G1T4Q9); assay: Kinetic assay: inhibition of the 20S proteasome; assay type: biochemical
Description: P, AA^1, AA^2, AA^3, and Z^1 and Z^2 represent the structures present on formula (1) or (2). The protocol for the kinetic assay described in Tables II-V is as described in Rock et al., Cell 78:761-771 (1994). In these tables, Ki values are reported, which are dissociation constants for the equilibrium that is established when enzyme and inhibitor interact to form the enzyme:inhibitor complex. The reactions were performed using SDS-activated 20S proteasome from rabbit muscle. The substrate used was Suc-LLVY-AMC.

C2C12 cells = assay: Inhibition of protein degradation in C2C12 cells; assay type: cell-based, mouse; conditions: 35S-methionine labelled cells, percent decrease in TCA soluble radioactivity, media with 50% serum
Description: One approach to testing drug candidates for their ability to inhibit the ATP-ubiquitin-dependent degradative process is to measure proteolysis in cultured cells (Rock, et al., Cell 78:761 (1994)). For example, the degradation of long-lived intracellular proteins can be measured in mouse C2C12 myoblast cells. Cells are incubated with ^35S-methionine for 48 hours to label long-lived proteins and then chased for 2 hours with medium containing unlabeled methionine. After the chase period, the cells are incubated for 4 hours in the presence or absence of the test compound. The amount of protein degradation in the cell can be measured by quantitating the trichloroacetic acid soluble radioactivity released from the pre-labeled proteins into the growth medium (an indicator of intracellular proteolysis).
C2C12 cells (a mouse myoblast line) were labelled for 48 hrs with ^35S-methionine. The cells were then washed and preincubated for 2 hrs in the same media supplemented with 2 mM unlabelled methionine. The media was removed and replaced with a fresh aliquot of the preincubation media containing 50% serum, and a concentration of the compound to be tested. The media was then removed and made up to 10% TCA and centrifuged. The TCA soluble radioactivity was counted. Inhibition of proteolysis was calculated as the percent decrease in TCA soluble radioactivity.

[2] = Table II, SDS-activated 20S proteasome from rabbit muscle, substrate Suc-LLVY-AMC

Ki [1, 2] [nM]	Compound	other results
0.14	CC(C)C[C@H](NC(=O)[C@H](Cc1cccc2ccccc12)NC(=O)c1cnc2ccccc2n1)B(O)O [MG-299]	IC50 (C2C12 cells): 280 nM
1.3	CC(C)C[C@H](NC(=O)[C@H](Cc1cccnc1)NC(=O)N1CCOCC1)B(O)O [MG-300]	
1.3	CC(=O)N[C@@H](Cc1c[nH]c2ccccc12)C(=O)N[C@@H](CC(C)C)B(O)O [MG-301]	IC50 (C2C12 cells): 1300 nM
0.23	CC(C)C[C@H](NC(=O)[C@H](Cc1ccc(OCc2ccccc2)cc1)NC(=O)N1CCOCC1)B(O)O [MG-306, N-(4-Morpholine)carbonyl-(O-benzyl)-L-tyrosine-L-leucine Boronic Acid]	IC50 (C2C12 cells; Mus musculus, C2C12): 130 nM
0.72	CC(C)CC(NC(=O)C(Cc1ccc2ccccc2c1)NC(=O)N1CCOCC1)B(O)O (stereo not drawn) [MG-308]	IC50 (C2C12 cells): 96 nM
6.3	CC(C)C[C@H](NC(=O)[C@H](Cc1ccccn1)NC(=O)N1CCOCC1)B(O)O [MG-312]	IC50 (C2C12 cells): 1100 nM
0.19	CC(C)C[C@H](NC(=O)[C@H](Cc1ccccc1)NC(=O)c1ccc2ccccc2n1)B(O)O [MG-314]	IC50 (C2C12 cells): 130 nM
2.2	CC(C)C[C@H](NC(=O)[C@H](Cc1ccc2ccccc2n1)NC(=O)N1CCOCC1)B(O)O [MG-315, N-(4-Morpholine)carbonyl-β-(2-quinolyl)-L-alanine-L-leucine Boronic Acid]	IC50 (C2C12 cells; Mus musculus, C2C12): 340 nM
22	CC(C)C[C@H](NC(=O)[C@@H]1Cc2ccccc2CN1)B(O)O [MG-316]	IC50 (C2C12 cells; Mus musculus, C2C12): 21000 nM
99	CB(O)[C@H](CC(C)C)NC(=O)[C@H](Cc1cccc2ccccc12)NC(=O)N1CCOCC1 [MG-317, N-(4-Morplioline)carbonyl-β-(1-naphtlyl)-L-alanine-L-leucine Methylboronic Acid]	
640	CB(C)[C@H](CC(C)C)NC(=O)[C@H](Cc1cccc2ccccc12)NC(=O)N1CCOCC1 [MG-318, N-(4-Morpholine)carbonyl-β-(1-naphthyl)-L-alanine-L-leucine Dimethylborane]	
850	CC(=O)N[C@@H](CC(C)C)B(O)O [MG-323]	
2	CC(C)C[C@H](NC(=O)[C@@H](CC(=O)N1CCOCC1)Cc1cccc2ccccc12)B(O)O [MG-324, N-[3-(4-Morpholine)carbonyl-2(R)-(1-naphthyl)methyl]propionyl-L-leucine Boronic Acid]	
230	CC(C)CC(NC(=O)C1NCCc2ccccc21)B(O)O (stereo not drawn) [MG-337]	
1.4	CC(C)C[C@H](NC(=O)[C@H](Cc1ccccn1)NC(=O)c1ccc2ccccc2n1)B(O)O [MG-338]	
1600	CC(C)CC(NC(=O)C1CCCNC1)B(O)O (stereo not drawn) [MG-339]	
9700	CC(C)C[C@H](CC(=O)NCc1ccccc1)B(O)O [MG-342, N-Benzyl-(3R)-3-dioxyboryl-5-methylhexanamide]	

Ki [1, 2] [nM]	Compound	other results
51	CC(=O)N1Cc2[nH]c3ccccc3c2C[C@H]1C(=O)N[C@@H](CC(C)C)B(O)O [MG-344]	
21	CC(C)C[C@H](NC(=O)[C@@H]1C[C@@H](O)CN1)B(O)O [MG-348]	
0.15	CC(C)C[C@H](NC(=O)[C@H](Cc1ccccc1)NC(=O)c1ccccc1)B(O)O [MG-353]	
28	CC(C)C[C@H](NC(=O)C[C@H](O)[C@H](Cc1cccc2ccccc12)NS(=O)(=O)c1cccc2cccnc12)B(O)O [MG-354]	
0.13	CC(C)C[C@H](NC(=O)[C@H](Cc1ccccc1)NC(=O)OCc1ccccc1)B(O)O [MG-356]	
23	CC(C)CC(NC(=O)C1CCCCN1)B(O)O (stereo not drawn) [MG-357]	
0.17	CC(C)C[C@H](NC(=O)[C@H](Cc1ccccc1)NC(=O)c1ccoc1)B(O)O [MG-358]	
0.14	CC(C)C[C@H](NC(=O)[C@H](Cc1ccccc1)NC(=O)c1cc[nH]c1)B(O)O [MG-361]	
6400	CC(C)C[C@H](NC(=O)NCc1ccccc1)B(O)O [MG-362]	
45.2	CC(C)C[C@H](NC(=O)[C@@H]1CCCCN1)B(O)O [MG-366]	
5.6	CC(C)C[C@H](NC(=O)[C@H](Cc1ccccn1)NC(=O)c1cnccn1)B(O)O [MG-368]	
24.2	CC(C)C[C@H](NC(=O)[C@@H]1CCN1)B(O)O [MG-369]	
4.4	CC(C)C[C@H](NC(=O)[C@H](Cc1ccccc1)NS(=O)(=O)c1cccc2cccnc12)B(O)O [MG-380]	
0.95	CC(C)C[C@H](NC(=O)[C@H](Cc1ccc(F)cc1)NC(=O)c1cnccn1)B(O)O [MG-382]	
0.84	CC(C)C[C@@H](NC(=O)[C@H](Cc1ccc(F)cc1)NC(=O)c1ccccn1)B(O)O [MG-383]	
23	CC(C)C[C@H](NC(=O)[C@@H]1C[C@@H](OCc2ccc3ccccc3n2)CN1)B(O)O [MG-385]	
92	CC(C)CC(NC(=O)C1CC2CCCCC2N1)B(O)O (stereo not drawn) [MG-386]	

Continued, compound first:

Compound	Ki [1, 2] [nM]	other results
CC(C)C[C@@H](C=O)NC(=O)[C@H](CC(C)C)NC(=O)OCc1ccccc1 [MG-105, reference compound]		Ki ([1]; Table III, dipeptide boronic acid vs dipeptide aldehyde): 15000 nM
CC(C)CC(NC(=O)C(CC(C)C)NC(=O)C(CC(C)C)NC(=O)OCc1ccccc1)B1OC2CC3CC(C3(C)C)C2(C)O1 (stereo not drawn) [MG-261]	0.032	
CC(C)CC(NC(=O)C(CC(C)C)NC(=O)OCc1ccccc1)B1OC2CC3CC(C3(C)C)C2(C)O1 (stereo not drawn) [MG-264]	119	
CC(C)C[C@H](NC(=O)[C@H](Cc1cccc2ccccc12)NC(=O)OCc1ccccc1)B(O)O [MG-270]	0.083	IC50 (C2C12 cells): 730 nM
CC(C)CC(NC(=O)C(Cc1ccc2ccccc2c1)NC(=O)OCc1ccccc1)B(O)O (stereo not drawn) [MG-272]	34	IC50 (C2C12 cells): 6000 nM
CC(C)C[C@H](NC(=O)[C@H](CC(C)C)NC(=O)[C@H](CC(C)C)NC(=O)N1CCOCC1)B(O)O [MG-278]	0.14	IC50 (C2C12 cells; Mus musculus, C2C12): 7500 nM
CC(C)C[C@H](NC(=O)[C@H](Cc1c[nH]cn1)NC(=O)OCc1ccccc1)B(O)O [MG-282]	25	IC50 (C2C12 cells): 64000 nM
CC(=O)N[C@@H](CC(C)C)C(=O)N[C@@H](CC(C)C)C(=O)N[C@@H](CC(C)C)B(O)O [MG-283]	0.46	IC50 (C2C12 cells; Mus musculus, C2C12): 3000 nM
CO[C@](C(=O)N[C@@H](CC(C)C)B(O)O)(c1ccccc1)C(F)(F)F [MG-284]	1200	
CC(C)C[C@H](NC(=O)[C@H](Cc1c[nH]c2ccccc12)NC(=O)N1CCOCC1)B(O)O [MG-285]	3	IC50 (C2C12 cells): 2400 nM
CC(C)C[C@H](NC(=O)[C@H](Cc1cccc2ccccc12)NC(=O)N1CCOCC1)B1OCCNCCO1 [MG-286, Diethanolamine N-(4-Morpholine)carbonyl-β-(1-naphthyl)-L-alanine-L-leucine Boronate]	0.15	IC50 (C2C12 cells; Mus musculus, C2C12): 95 nM
CC(C)C[C@H](NC(=O)[C@H](Cc1cccnc1)NS(C)(=O)=O)B(O)O [MG-289]	6.3	IC50 (C2C12 cells): 10800 nM
CC(=O)N[C@@H](Cc1cccnc1)C(=O)N[C@@H](CC(C)C)B(O)O [MG-290]	5.4	IC50 (C2C12 cells): 10200 nM
CC(C)C[C@H](NC(=O)[C@H](Cc1cccc2ccccc12)NS(C)(=O)=O)B1OCCNCCO1 [MG-291]	0.28	
CC(C)CC(NC(=O)C(Cc1ccc2ncccc2c1)NC(=O)N1CCOCC1)B(O)O [MG-292, N-(4-Morpholine)carbonyl-β-(6-quinolinyl)-D, L-alanine-L-leucine Boronic Acid]	6	IC50 (C2C12 cells; Mus musculus, C2C12): 11300 nM
CC(C)CC(NC(=O)C(Cc1cccc2ccccc12)NC(=O)N1CCOCC1)B(O)O (stereo not drawn) [MG-293]	2300	
CC(C)C[C@H](NC(=O)[C@@H](N)Cc1cccnc1)B(O)O [MG-294]	152	
CC(C)C[C@H](NC(=O)[C@H](Cc1c[nH]c2ccccc12)NS(C)(=O)=O)B(O)O [MG-295]	5.8	
CC(C)C[C@H](NC(=O)[C@H](Cc1cccc2ccccc12)NC(=O)c1ccc2ccccc2n1)B(O)O [MG-298]	0.075	IC50 (C2C12 cells): 230 nM
CC(C)C[C@H](NC(=O)[C@H](Cc1ccc(O)cc1)NC(=O)N1CCOCC1)B(O)O [MG-307, N-(4-morpholine)carbonyl-L-tyrosine-L-leucine boronic acid]	0.51	IC50 (C2C12 cells): 4800 nM
CC(=O)N1Cc2ccccc2CC1C(=O)N[C@@H](CC(C)C)B(O)O (stereo partly drawn) [MG-310, N-Acetyl-1,2,3,4-tetrahydro-3-isoquinolinecarbonyl-L-leucine Boronic Acid]	90	
CC(C)C[C@H](NC(=O)CCc1ccccc1)B(O)O [MG-313]		IC50 (C2C12 cells; Mus musculus, C2C12): 3500 nM
N-(3-phenylpropionyl)-L-phenylalanine-L-leucine boronic acid [MG-352]	0.15	
N-Methyl-N-Cbz-L-leucine-L-leucine Boronic Acid [MG-268]	998	
cis-3-Phenyl-D,L-proline-L-leucine Boronic Acid Hydrochloride Salt [MG-359]	5.5	
trans-3-Phenyl-D,L-proline-L-leucine Boronic Acid Hydrochloride Salt [MG-363]	3.45	
trans-4-Phenoxy-L-proline-L-leucine Boronic Acid [MG-349]	18	
